Structures are written as SMILES. Values joined by “and” are separate entries in the source; they are usually repeats but may differ in a detail not shown here. Identical values can stand only once.

This assay has as its target NanoLuc-PRMT5 co-expressed with WDR77 (Homo sapiens, UniProt O14744). The assay is described as follows: Live-cell NanoBRET target engagement with BRET probe CBH-002 in HEK293 cells expressing NanoLuc-PRMT5 and unlabeled WDR77. Conditions: for BRET, CBH-002 + DMSO / BRET, CBH-002 + GSK3326595: log([CBH-002]); for BRET, CBH-002 + GSK3326595: 10 µM GSK3326595. Set-up: host or cells: HEK293; key to BRET, CBH-002 + DMSO / BRET, CBH-002 + GSK3326595: mBRET units = acceptor/donor BRET ratio × 1000. The assay is classed as cell-based. On the procedure:
HEK293 cells (ATCC) were cultured in DMEM (Thermo Fisher) + 10% (v/v) FBS (Seredigm), and HCT116 cells (Horizon Discovery, #PAR-034 and #R02-033) were cultured in McCoy’s 5A (Thermo Fisher) + 10% FBS, with incubation in a humidified, 37 °C/5% CO2 incubator. Cells were split 1–3 days prior to performing experiments and used at roughly 80% confluency. […] Cells were transfected according to the manufacturer’s protocol using FuGENE HD (Promega). NanoLuc fusion DNA was diluted into Transfection Carrier DNA (Promega) in Opti-MEM at a ratio of 1:9 (mass/mass), and FuGENE HD was added at a ratio of 1:3 (μg DNA:μL lipid). […] Formed complexes were combined with cells resuspended to a density of 2 × 10^5 cells/mL in Opti-MEM + 1% FBS at a ratio of 1:20 (vol:vol). […] Cells were seeded at a density of 2 × 10^5 cells/mL in Opti-MEM + 1% FBS in 100 μL (96-well). The BRET probe CBH-002 was prepared first as a 100× stock in 100% DMSO (Sigma) and then diluted to a 20× stock in NanoBRET Tracer Dilution buffer (Promega). Test compounds were prepared as 1000× stocks in 100% DMSO and diluted to 10× stocks in Opti-MEM to prepare working stocks. […] NanoBRET Complete 3x Substrate was prepared by combining Nano-Glo Substrate and Extracellular NanoLuc Inhibitor in Opti-MEM, according to the manufacturer’s protocol (Promega).
BRET ratio values were calculated by dividing the acceptor by the donor signal, and raw BRET was converted to milli-BRET (mBRET) units (mBu) by multiplying by 1000.
EC50 values were obtained by fitting the BRET probe and compound affinity curves to a sigmoidal four-parameter fit model in Graphpad Prism:1 Y=Ymin+Ymax−Ymin/1+10^LogEC50−Xh where h is the Hill Slope.
When normalized BRET was used, mBRET values were normalized using2 NormalizedBRET%=(Y−BRETmin)/BRETmax−BRETmin where y = mBRET in the presence of test compound and BRET probe, BRETmin = mBRET at the highest concentration (saturating) of test compound and BRET probe, and BRETmax = mBRET in the presence of vehicle (DMSO) and BRET probe.
Normalized concentration-response curves showing full competition were fit using a 2-parameter model:3 Y=100/1+10^LogEC50−Xh
In situations where only partial competition was observed, the normalized concentration-response curves were fit using Eq. 1 and where Ymin was constrained to >0.
On the technique in general: Bioluminescence resonance energy transfer reports proximity on the nanometre scale.

NanoLuc-PRMT5 co-expressed with WDR77, sequence (O14744 whole entry): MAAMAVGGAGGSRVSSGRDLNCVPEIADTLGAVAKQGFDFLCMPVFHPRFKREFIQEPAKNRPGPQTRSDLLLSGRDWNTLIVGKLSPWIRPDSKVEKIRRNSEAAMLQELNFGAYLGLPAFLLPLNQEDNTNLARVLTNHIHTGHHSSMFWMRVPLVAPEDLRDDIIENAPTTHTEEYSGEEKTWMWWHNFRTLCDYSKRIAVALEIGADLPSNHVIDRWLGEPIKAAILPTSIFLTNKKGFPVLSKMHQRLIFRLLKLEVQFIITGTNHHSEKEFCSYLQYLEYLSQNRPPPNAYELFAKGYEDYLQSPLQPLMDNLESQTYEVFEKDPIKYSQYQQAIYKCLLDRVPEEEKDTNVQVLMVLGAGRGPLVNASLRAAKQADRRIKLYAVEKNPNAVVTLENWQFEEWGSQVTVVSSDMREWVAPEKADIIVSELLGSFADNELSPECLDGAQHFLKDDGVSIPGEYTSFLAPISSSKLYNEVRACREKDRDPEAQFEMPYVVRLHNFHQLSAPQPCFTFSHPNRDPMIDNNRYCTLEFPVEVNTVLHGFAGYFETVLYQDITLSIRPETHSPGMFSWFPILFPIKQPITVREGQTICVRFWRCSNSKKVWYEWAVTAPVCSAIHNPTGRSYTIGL
NanoLuc-PRMT5 co-expressed with WDR77, sequence (Q9BQA1 whole entry partner): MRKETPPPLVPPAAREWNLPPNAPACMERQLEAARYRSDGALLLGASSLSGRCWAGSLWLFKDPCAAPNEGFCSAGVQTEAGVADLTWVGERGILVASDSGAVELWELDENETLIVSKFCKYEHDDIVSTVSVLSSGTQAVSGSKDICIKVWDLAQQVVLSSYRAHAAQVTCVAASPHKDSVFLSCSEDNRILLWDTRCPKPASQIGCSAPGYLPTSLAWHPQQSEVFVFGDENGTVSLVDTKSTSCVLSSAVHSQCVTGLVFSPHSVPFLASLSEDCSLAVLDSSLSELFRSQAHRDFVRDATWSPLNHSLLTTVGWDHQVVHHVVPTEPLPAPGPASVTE

The EC50 is the midpoint of the concentration-response curve. `O=C(CCc1ccc2n1[B-](F)(F)[N+]1=C(c3ccc[nH]3)C=CC1=C2)NCCCCC(=O)N1CCC(Nc2cc(C(=O)NC[C@H](O)CN3CCc4ccccc4C3)ncn2)CC1` [CBH-002]: the “BRET, CBH-002 + DMSO” value is, setting by setting: (uM 0.00) 772.09 and 714.74 and 694.22; (uM -0.30) 762.09 and 706.06 and 687.42; (uM -0.60) 725.23 and 680.05 and 663.94; (uM -0.90) 664.14 and 629.71 and 617.88; (uM -1.20) 530.53 and 496.08 and 504.63; (uM -1.51) 359.70 and 340.31 and 361.19. The “BRET, CBH-002 + DMSO” value was 238.28 and 223.48 and 233.43 (uM -1.81); 126.25 and 118.03 and 125.67 (uM -2.11); 70.04 and 65.87 and 70.86 (uM -2.41); 39.89 and 37.62 and 39.62 (uM -2.71); 23.90 and 22.68 and 24.07 (uM -3.01). Besides, the “BRET, CBH-002 + GSK3326595” value (uM 0.00) was 61.04 and 53.68 and 50.91; the “BRET, CBH-002 + GSK3326595” value (uM -0.30) was 39.10 and 34.12 and 31.58; the “BRET, CBH-002 + GSK3326595” value (uM -0.60) was 21.81 and 20.23 and 18.49; the “BRET, CBH-002 + GSK3326595” value (uM -0.90) was 15.32 and 14.57 and 13.57; the “BRET, CBH-002 + GSK3326595” value (uM -1.20) is 11.35 and 11.22 and 10.54; the “BRET, CBH-002 + GSK3326595” value (uM -1.51) was 9.43 and 9.45 and 8.97. Moreover, the “BRET, CBH-002 + GSK3326595” value reads like this: (uM -1.81) 8.65 and 8.75 and 8.42; (uM -2.11) 8.17 and 8.22 and 7.93; (uM -2.41) 7.94 and 8.15 and 7.70; (uM -2.71) 7.74 and 7.94 and 7.67; (uM -3.01) 7.80 and 7.76 and 7.50. Also, under “probe titration against 10 µM GSK3326595 or DMSO, live HEK293, WDR77 co-expression, read-out: CBH-002 apparent affinity (EC50)”, the EC50 is 33 nM.

The values are drawn from article PMC12675575, “A BRET biosensor for measuring uncompetitive engagement of PRMT5 complexes in cells” (Nature Communications, 2025).
